What was measured:
TP = molecular target: T1, TP (Homo sapiens, UniProt P21731); assay: U44069-mediated [Ca2+]i mobilization (CEREP); assay type: cell-based; details: CEREP assay, agonist U44069; read-out: IC50 Value for Inhibition of U44069-Mediated [Ca2+]i Mobilization
T1 construct: CEREP
T1 sequence (P21731 1-343): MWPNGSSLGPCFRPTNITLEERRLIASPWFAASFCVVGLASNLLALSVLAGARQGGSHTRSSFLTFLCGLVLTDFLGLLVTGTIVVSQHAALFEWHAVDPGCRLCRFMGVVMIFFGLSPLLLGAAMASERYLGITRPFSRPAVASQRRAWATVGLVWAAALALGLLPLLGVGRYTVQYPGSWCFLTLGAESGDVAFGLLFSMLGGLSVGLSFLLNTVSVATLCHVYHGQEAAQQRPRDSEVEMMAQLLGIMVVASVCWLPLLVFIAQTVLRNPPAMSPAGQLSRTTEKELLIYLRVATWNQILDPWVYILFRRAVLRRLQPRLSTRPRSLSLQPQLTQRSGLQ
Excerpt: FIG. 18 presents the effect of NTP42 and NTP48 on TP- or U44069-mediated signaling (CEREP use the related U44069 rather than U46619), including IC50 values for inhibition (see also Table 4). Those effects indicate that NTP42 & NTP48 are potent antagonists of U46609 or TP. The differences in IC50 values may be attributed to the differences in the particular conditions of the assay, including differences in cell type, agonist, calcium indicator, etc.
Table 4 is an example of the IC50 values of NTP42 and NTP48 to antagonize TP-mediated [Ca^2+]i mobilization following stimulation of cells with the alternative TP agonist […].

TPβ = molecular target: T2, TPβ (Homo sapiens, UniProt P21731); assay: U46619-mediated calcium mobilization in HEK.TPβ cells; assay type: cell-based; details: for IC50: 1 μM U46619, estimated IC50, mean ± S.E.M., read-out: IC50 values for Inhibition of U46619-Mediated [Ca2+]i Mobilisation, TPβ; for inhibition of U46619-mediated calcium mobilization, TPβ (in words): 1 μM U46619
T2 construct: expressed in transfected cells; host or cells: HEK 293 (HEK.TPβ, isolate EM #8)
Procedure: NTP42-NTP49, northern group variants of NTP4, were assessed through calcium mobilization assays using proprietary HEK 293 cells over-expressing the thromboxane (TX)A2 receptor, α (TPα) and β (TPβ) isoforms, referred to as HEK.TPα and HEK.TPβ cells, respectively. The initial screening involved dose-responses assays (concentrations used 0.0001 (TPβ only), 0.001, 0.1, 1 & 10 μM; (TPα and TPβ)) followed by more focused, full dose response assays (concentration range: 0.00001 to 10 μM) for determination of IC50 values where the effect of the compounds on calcium mobilized in response to the TXA2 mimetic U46619 (1 μM) were performed in side-by-side comparison with the key lead compounds TP20 and NTP4.
As stated, NTP42-NTP49 were screened through calcium mobilization assays using HEK.TPα and HEK.TPβ cells over-expressing the thromboxane (TX)A2 receptor, α (TPα) and β (TPβ) isoforms, respectively. The initial screening involved dose-response assays where the compounds, used at 0.0001 (TPβ only), 0.001, 0.1, 1 & 10 μM (TPα and TPβ), were assessed for their ability to inhibit the TXA2 mimetic U46619 (1 μM). The compounds were tested in side-by-side assays with the previously identified key lead compounds TP20 and NTP4.
(§1) HEK.TPβ (EM #8) cells, preloaded with Fluo-4, were incubated with the TP20, NTP4, NTP42, NTP43, NTP44, NTP45, NTP47, NTP48 & NTP49 where each antagonist was used at 0.0001, 0.001, 0.1, 1 & to 10 μM, as indicated, prior to stimulation with 1 μM U46619. Data is presented as the mean (±S.E.M.) percentage of the agonist-induced response in vehicle-treated cells (Percentage of Control; %) and represents data from at least 4 independent experiments were cells were treated in duplicate.
as §1, with “NTP43 and” for “NTP43, NTP44, NTP45, NTP47,”, “NTP48” for “NTP48 & NTP49”, “0.00001-10” for “0.0001, 0.001, 0.1, 1 & to 10”

MCT-induced PAH = assay: Monocrotoline (MCT)-induced model of pulmonary arterial hypertension (PAH) in rats; assay type: in vivo, rat; details: for lumen: total vessel diameter ratio versus animals treated with MCT-alone: day 28, oral BID, NTP42 and TP20 0.25 mg/kg/dose, Sildenafil 50 mg/kg/dose
Procedure: FIGS. 19-23 show the efficacy of NTP42 in the monocrotoline (MCT)-induced model of pulmonary arterial hypertension (PAH) in rats. In brief, male Wistar/Kyoto rats were given a single dose of MCT (60 mg/kg, subcutaneously) and then treated with twice daily doses (oral dosing) for 28 days with either the drug vehicle, the test article NTP42 (0.25 mg/kg/dose, BID) or with the reference compounds Sildenafil (50 mg/kg/dose, BID) or TP20 (0.25 mg/kg/dose, BID). As a control, a group of rats were left untreated, i.e., no MCT or therapeutic drugs. At Day 28, post-MCT induction, rats were anaesthetised for cardiac surgery & hemodynamic parameters recorded. Thereafter, the trachea, heart & lungs were removed en masse, the wet weights of the heart & lungs recorded and then the lungs were harvested, fixed and processed for histopathology.
Aperio's ImageScope was used to analyze the digitally scanned H&E stained lung sections, where 10 random squares (approx. size or each square=1×10^6 μm^2) per lower, middle and upper section of lung tissue were selected for analysis. Within each square, all blood arterioles (complete arterioles within each square and those touching the right & bottom were assessed but not the left or top of the squares) were measured in ImageScope for luminal and total vessel diameter where the ratio of lumen to total vessel diameter was determined for each arteriole.
FIGS. 24-27 show the effect of the test articles on the mean (±S.E.M.) lumen: total vessel diameter ratio for all arterioles (Total) and the arterioles categorized by size: small, <50 μm total diameter; medium, 50-100 μm and large, >100 μm.
FIG. 27 presents data representing the mean (±SEM) lumen: total vessel diameter ratio for large arterioles (>100 μm).

T2 sequence (P21731 1-407 isoform P21731-2): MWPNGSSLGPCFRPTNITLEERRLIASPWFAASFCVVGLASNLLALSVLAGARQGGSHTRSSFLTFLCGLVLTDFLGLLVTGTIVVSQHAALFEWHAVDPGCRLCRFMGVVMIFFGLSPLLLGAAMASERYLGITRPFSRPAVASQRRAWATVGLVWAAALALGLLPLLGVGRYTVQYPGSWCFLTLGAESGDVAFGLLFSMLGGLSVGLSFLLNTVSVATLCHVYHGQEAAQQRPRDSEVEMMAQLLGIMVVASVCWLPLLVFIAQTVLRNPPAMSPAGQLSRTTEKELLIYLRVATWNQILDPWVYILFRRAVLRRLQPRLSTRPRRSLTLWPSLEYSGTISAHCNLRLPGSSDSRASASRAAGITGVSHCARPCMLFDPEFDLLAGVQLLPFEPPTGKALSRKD

Row | IC50 (TPβ) | SMILES | IC50 (TP) | efficacy in the MCT-induced PAH model (hemodynamic and histological features) (MCT-induced PAH; MCT 60 mg/kg s.c., oral 0.25 mg/kg/dose BID for 28 days) | lumen: total vessel diameter ratio versus animals treated with MCT-alone (MCT-induced PAH) | inhibition of U46619-mediated calcium mobilization, TPβ (in words) (TPβ)
1 |  | COc1ccc(-c2cccc(Oc3ccc([N+](=O)[O-])cc3S(=O)(=O)NC(=O)NC(C)(C)C)c2)cc1 [TP20, reference compound] |  |  | significantly increased | potently inhibited
2 | 18.4 ± 1.63 nM | CC(C)(C)NC(=O)NS(=O)(=O)c1cc(C#N)ccc1Oc1cccc(-c2ccc(OC(F)(F)F)cc2)c1 [NTP43] |  |  |  | 
3 |  | COc1ccc(-c2cccc(Oc3ccc(C#N)cc3S(=O)(=O)NC(=O)NC(C)(C)C)c2)cc1 [NTP4, reference compound] |  |  |  | potently inhibited
4 | 5.06 ± 1.5 nM | CN(C)C(=O)c1ccc(-c2cccc(Oc3ccc(C#N)cc3S(=O)(=O)NC(=O)NC(C)(C)C)c2)cc1 [NTP48, 4-[3-[2-(tert-Butylcarbamoylsulfamoyl)-4-cyano-phenoxy]phenyl]-N,N-dimethyl-benzamide] | 7.71 ± 0.96 nM |  |  | 

Row | SMILES | IC50 (TPβ) | IC50 (TP) | efficacy in the MCT-induced PAH model (hemodynamic and histological features) (MCT-induced PAH; MCT 60 mg/kg s.c., oral 0.25 mg/kg/dose BID for 28 days) | lumen: total vessel diameter ratio versus animals treated with MCT-alone (MCT-induced PAH) | inhibition of U46619-mediated calcium mobilization, TPβ (in words) (TPβ)
5 | CC(C)(C)NC(=O)NS(=O)(=O)c1cc(C#N)ccc1Oc1cccc(-c2ccc(OC(F)F)cc2)c1 [NTP42] | 8.25 ± 0.73 nM | 3.28 ± 0.34 nM | efficacious | significantly increased | 

From patent US10966994B2, “Thromboxane receptor antagonists” (ATXA THERAPEUTICS LIMITED, priority 2015, dated 2021)
